Experimental data from ChEMBL document CHEMBL4834444, “Discovery of novel N-1 substituted pyrazolopyrimidinones as potent, selective PDE2 inhibitors” (Bioorg Med Chem Lett, 2021).
In brackets after ≈: the same amount, converted by molar mass.

How the values were obtained:
[1] = Plasma protein binding in rhesus monkey assessed as unbound fraction; type: ADME, cell-free, Macaca mulatta
[2] = Kinetic solubility of compound at pH 7; type: physicochemical; settings: buffer, read-out: Kinetic_solubility
[3] = biological target: T1, PXR (nuclear receptor subfamily 1 group I member 2) (Homo sapiens, UniProt O75469); test: Inhibition of human PXR at 10 uM
T1 sequence (O75469 whole entry): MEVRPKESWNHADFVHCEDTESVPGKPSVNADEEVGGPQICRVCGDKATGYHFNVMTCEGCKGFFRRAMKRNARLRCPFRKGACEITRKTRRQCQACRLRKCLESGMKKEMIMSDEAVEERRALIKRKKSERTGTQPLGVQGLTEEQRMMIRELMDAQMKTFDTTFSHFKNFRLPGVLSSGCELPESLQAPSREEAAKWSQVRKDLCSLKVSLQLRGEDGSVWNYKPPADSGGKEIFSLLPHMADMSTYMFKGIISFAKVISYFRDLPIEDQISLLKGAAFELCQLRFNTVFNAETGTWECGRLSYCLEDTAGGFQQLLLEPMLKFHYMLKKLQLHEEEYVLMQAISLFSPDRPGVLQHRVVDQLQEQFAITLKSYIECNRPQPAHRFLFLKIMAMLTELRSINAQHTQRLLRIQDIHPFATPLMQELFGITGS

[4] = Half life in rat; type: ADME; settings: in vivo
Phosphodiesterase 4 = Phosphodiesterase 4 (Homo sapiens, UniProt P27815+Q08499+Q07343+Q08493); test: Inhibition of human PDE4; type: protein assay
[5] = Plasma clearance in rat; type: ADME
[6] = biological target: cGMP-specific 3',5'-cyclic phosphodiesterase (Homo sapiens, UniProt O76074); test: Inhibition of human PDE5
[7] = Mean residence time in rat; type: ADME; settings: in vivo
[8] = Plasma protein binding in human assessed as unbound fraction; type: ADME, cell-free
Cytochrome P450 3A4 = Cytochrome P450 3A4 (Homo sapiens, UniProt P08684); test: Inhibition of CYP3A4 (unknown origin); type: ADME
[9] = Plasma protein binding in rat assessed as unbound fraction; type: ADME, cell-free
[10] = biological target: cAMP and cAMP-inhibited cGMP 3',5'-cyclic phosphodiesterase 10A (Homo sapiens, UniProt Q9Y233); test: Inhibition of human PDE10
[11] = Kinetic solubility of compound at pH 2; type: physicochemical; settings: buffer, read-out: Kinetic_solubility
Homo sapiens = species on record: Homo sapiens; test: Inhibition of Ion channel (unknown origin)
[12] = Inhibition of human PDE1
[13] = Inhibition of human PDE8
[14] = biological target: High affinity cGMP-specific 3',5'-cyclic phosphodiesterase 9A (Homo sapiens, UniProt O76083); test: Inhibition of human PDE9
[15] = Kinetic solubility of compound in FaSSIF; type: physicochemical; settings: read-out: Kinetic_solubility
Cytochrome P450 2D6 = Cytochrome P450 2D6 (Homo sapiens, UniProt P10635); test: Inhibition of CYP2D6 (unknown origin); type: ADME
[16] = Inhibition of human PDE3
[17] = biological target: Dual 3',5'-cyclic-AMP and -GMP phosphodiesterase 11A (Homo sapiens, UniProt Q9HCR9); test: Inhibition of human PDE11
Phosphodiesterase 7 = Phosphodiesterase 7 (Homo sapiens, UniProt Q13946+Q9NP56); test: Inhibition of human PDE7; type: protein assay
Phosphodiesterase 6 = test: Inhibition of human PDE6; type: protein assay
Cytochrome P450 2C9 = Cytochrome P450 2C9 (Homo sapiens, UniProt P11712); test: Inhibition of CYP2C9 (unknown origin); type: ADME
Chain of Cytochrome P450 2C9 (P11712 whole entry): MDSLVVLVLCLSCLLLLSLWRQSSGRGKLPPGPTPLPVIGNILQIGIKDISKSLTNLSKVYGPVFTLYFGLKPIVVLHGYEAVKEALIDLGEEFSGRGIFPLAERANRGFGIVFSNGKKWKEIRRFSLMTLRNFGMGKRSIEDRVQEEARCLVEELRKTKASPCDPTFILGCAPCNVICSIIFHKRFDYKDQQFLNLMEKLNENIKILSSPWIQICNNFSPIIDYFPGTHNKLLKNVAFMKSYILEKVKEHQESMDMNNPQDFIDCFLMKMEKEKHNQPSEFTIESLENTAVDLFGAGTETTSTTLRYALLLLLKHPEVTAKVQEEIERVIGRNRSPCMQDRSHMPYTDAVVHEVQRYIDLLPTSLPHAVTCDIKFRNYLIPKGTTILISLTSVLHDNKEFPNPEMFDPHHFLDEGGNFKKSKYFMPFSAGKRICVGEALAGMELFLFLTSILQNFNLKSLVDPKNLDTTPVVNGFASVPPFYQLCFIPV

Chain of Dual 3',5'-cyclic-AMP and -GMP phosphodiesterase 11A (Q9HCR9 whole entry): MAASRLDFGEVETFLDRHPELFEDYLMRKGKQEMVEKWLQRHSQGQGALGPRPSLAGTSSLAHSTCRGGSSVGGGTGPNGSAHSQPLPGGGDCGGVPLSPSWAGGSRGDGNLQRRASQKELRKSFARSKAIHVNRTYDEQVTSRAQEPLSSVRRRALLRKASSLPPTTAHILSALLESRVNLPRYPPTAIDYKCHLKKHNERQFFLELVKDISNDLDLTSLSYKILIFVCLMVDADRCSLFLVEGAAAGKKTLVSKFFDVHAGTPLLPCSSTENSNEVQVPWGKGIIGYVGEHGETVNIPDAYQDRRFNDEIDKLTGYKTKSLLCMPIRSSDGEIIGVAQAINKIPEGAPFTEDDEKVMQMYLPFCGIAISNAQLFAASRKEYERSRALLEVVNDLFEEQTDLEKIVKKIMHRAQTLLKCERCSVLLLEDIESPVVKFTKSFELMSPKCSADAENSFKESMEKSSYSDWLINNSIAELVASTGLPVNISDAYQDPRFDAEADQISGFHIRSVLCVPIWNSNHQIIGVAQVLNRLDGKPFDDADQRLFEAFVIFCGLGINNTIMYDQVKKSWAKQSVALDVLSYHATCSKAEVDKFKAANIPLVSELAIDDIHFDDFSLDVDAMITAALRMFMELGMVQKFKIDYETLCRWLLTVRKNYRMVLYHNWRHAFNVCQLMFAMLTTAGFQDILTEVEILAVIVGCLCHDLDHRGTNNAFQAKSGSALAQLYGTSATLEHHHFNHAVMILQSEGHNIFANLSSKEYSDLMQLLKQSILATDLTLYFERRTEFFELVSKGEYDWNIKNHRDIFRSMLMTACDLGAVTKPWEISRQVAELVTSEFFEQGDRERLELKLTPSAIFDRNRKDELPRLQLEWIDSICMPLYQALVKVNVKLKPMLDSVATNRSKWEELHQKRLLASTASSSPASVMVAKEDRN
Chain of Cytochrome P450 2D6 (P10635 whole entry): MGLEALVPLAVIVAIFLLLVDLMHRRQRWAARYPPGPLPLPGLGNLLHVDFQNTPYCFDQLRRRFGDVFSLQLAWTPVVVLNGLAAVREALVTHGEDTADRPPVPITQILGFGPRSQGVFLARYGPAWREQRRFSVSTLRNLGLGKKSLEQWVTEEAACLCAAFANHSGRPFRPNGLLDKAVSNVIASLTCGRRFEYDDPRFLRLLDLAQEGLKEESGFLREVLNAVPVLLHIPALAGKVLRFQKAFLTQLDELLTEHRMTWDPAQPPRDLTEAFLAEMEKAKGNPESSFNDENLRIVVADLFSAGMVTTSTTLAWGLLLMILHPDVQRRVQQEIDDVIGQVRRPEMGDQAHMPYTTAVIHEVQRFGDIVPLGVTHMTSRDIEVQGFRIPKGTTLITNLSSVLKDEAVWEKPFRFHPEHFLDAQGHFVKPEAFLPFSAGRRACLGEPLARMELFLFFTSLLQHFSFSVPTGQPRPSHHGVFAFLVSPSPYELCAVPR
Chain of cAMP and cAMP-inhibited cGMP 3',5'-cyclic phosphodiesterase 10A (Q9Y233 whole entry): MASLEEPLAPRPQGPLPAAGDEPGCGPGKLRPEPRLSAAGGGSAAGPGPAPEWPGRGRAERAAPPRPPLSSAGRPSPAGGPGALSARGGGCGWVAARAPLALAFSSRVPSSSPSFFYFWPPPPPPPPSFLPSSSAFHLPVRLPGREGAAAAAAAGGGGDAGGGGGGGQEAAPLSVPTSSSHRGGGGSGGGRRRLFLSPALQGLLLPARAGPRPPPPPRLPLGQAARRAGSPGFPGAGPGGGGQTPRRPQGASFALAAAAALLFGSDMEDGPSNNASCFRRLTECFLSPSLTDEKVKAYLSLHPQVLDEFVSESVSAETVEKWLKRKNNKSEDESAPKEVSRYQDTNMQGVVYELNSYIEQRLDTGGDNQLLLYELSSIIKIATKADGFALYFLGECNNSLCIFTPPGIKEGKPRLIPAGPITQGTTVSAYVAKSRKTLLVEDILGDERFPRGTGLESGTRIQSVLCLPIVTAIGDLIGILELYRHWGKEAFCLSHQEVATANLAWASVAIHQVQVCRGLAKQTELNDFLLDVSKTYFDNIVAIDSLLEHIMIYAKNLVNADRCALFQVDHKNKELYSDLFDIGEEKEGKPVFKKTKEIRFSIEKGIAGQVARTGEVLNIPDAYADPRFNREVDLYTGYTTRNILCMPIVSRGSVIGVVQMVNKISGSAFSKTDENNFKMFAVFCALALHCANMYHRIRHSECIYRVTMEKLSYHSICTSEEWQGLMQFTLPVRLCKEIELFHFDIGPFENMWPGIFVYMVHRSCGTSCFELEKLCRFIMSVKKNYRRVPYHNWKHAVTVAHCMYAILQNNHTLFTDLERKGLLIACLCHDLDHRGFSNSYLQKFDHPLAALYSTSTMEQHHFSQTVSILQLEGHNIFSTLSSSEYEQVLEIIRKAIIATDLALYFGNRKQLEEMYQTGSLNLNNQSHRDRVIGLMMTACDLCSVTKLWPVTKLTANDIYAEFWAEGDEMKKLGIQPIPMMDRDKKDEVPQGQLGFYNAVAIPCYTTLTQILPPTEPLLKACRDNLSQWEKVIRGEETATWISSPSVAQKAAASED
Chain of High affinity cGMP-specific 3',5'-cyclic phosphodiesterase 9A (O76083 whole entry): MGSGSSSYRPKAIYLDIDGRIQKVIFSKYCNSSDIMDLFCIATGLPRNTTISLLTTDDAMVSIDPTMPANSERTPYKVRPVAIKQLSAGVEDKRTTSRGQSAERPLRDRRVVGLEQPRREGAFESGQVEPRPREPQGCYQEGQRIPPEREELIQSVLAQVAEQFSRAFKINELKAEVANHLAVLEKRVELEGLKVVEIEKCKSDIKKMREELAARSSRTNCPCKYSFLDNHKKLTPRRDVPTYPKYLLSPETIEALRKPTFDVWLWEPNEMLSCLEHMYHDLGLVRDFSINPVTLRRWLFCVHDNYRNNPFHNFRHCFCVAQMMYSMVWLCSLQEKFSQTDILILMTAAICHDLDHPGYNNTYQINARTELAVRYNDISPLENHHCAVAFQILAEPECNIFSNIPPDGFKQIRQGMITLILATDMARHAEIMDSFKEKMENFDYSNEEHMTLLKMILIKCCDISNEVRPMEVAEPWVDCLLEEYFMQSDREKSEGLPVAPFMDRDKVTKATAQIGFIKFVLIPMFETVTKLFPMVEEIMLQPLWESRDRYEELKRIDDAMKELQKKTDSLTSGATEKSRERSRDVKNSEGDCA
Chain of Cytochrome P450 3A4 (P08684 whole entry): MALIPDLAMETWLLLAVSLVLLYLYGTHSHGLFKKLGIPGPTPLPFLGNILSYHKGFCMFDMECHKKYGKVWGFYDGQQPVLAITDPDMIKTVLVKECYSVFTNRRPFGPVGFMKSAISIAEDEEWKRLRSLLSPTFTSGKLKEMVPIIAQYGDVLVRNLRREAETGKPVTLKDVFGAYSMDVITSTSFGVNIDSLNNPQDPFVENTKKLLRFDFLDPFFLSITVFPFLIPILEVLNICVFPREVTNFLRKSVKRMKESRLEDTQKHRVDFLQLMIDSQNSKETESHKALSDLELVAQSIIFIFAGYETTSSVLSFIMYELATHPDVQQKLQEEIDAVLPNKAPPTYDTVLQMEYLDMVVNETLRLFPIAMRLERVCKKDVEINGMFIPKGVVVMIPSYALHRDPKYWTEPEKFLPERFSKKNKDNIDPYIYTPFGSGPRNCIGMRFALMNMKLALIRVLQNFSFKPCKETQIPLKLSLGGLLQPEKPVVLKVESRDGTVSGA

SMILES	fraction unbound [1]	solubility kinetic [2] [µM]	inhibition at 10 µM [3] [%]	half-life [4] [h]	IC50 (Phosphodiesterase 4) [µM]	clearance [5] [mL/min/kg]	IC50 [6] [µM]	MRT [7] [h]	fraction unbound [8]	INH (Cytochrome P450 3A4) [µM]	fraction unbound [9]	IC50 [10] [µM]	solubility kinetic [11] [µM]	INH (Homo sapiens) [µM]	IC50 [12] [µM]	IC50 [13] [µM]	IC50 [14] [µM]	solubility kinetic [15] [µM]	INH (Cytochrome P450 2D6) [µM]	IC50 [16] [µM]	also measured
Cc1nc2c([C@H](C)c3ccc(C(F)(F)F)c(F)c3)nn(CCO)c2c(=O)[nH]1	0.035	115 (≈ 44.2 µg/mL)	16	3.1	3.5	24	23	2.5	0.03	44	0.049	18	117 (≈ 45 µg/mL)	9.6	> 60	> 50	> 50	148 (≈ 56.9 µg/mL)	> 50	1.8	IC50 [17]: 6.2 µM; IC50 (Phosphodiesterase 7): > 75 µM; IC50 (Phosphodiesterase 6): 27 µM; INH (Cytochrome P450 2C9): > 50 µM
Cc1nc2c([C@H](C)c3ccc(C(C)(C)C)cc3)nn(CCF)c2c(=O)[nH]1	0.016	20 (≈ 7.13 µg/mL)	45	1.4	3.3	49	21	0.8	0.009	> 50	0.014	5.8	60 (≈ 21.4 µg/mL)	17	> 60	> 50	> 50	177 (≈ 63.1 µg/mL)	> 50	5.7	IC50 [17]: 0.6 µM; IC50 (Phosphodiesterase 7): > 75 µM; IC50 (Phosphodiesterase 6): 11 µM; INH (Cytochrome P450 2C9): > 50 µM
